Experiment [1] has as its system histamine-induced bronchoconstriction. As to the kind of experiment: Histamine-induced airway contraction reaction in guinea pigs. It counts as in vivo. To be noted: Cavia porcellus, iv, 0.5 min, i.v., 30 seconds after administration, read-out: Inhibition ratio; for inhibition in vivo at 0.3 mg/kg: 0.3 mg/kg administration (results in brackets); for inhibition in vivo at 0.1 mg/kg: 0.1 mg/kg administration (not in brackets). The method, then: Guinea pigs were anesthetized with pentobarbital (30 mg/kg, i.p.). A cannula for intravenous administration, a cannula for collecting blood and measuring blood pressure, and a tracheal cannula were inserted into the left external jugular vein, right internal carotid artery, and trachea, respectively. The guinea pigs were maintained on artificial respiration under the conditions of 60 times/min and 10 mL/kg/stroke. The airflow from the side branch of the tracheal cannula was measured by a bronchospasm transducer (Ugo-Basile) and recorded on a computer via Power Lab (ADInstruments Japan). The guinea pigs were immobilized with gallamine (10 mg/kg, i.v.), and histamine was administered at 10-minute intervals (12.5 μg/kg, i.v.). […] We examined the inhibitory action of test compounds on histamine-induced bronchoconstriction 30 seconds after compounds administration. Bronchoconstriction was recorded as the amount of airflow, and the results were represented by the ratio of the maximum value of the histamine-induced airflow 30 seconds after the administration to the maximum value of the airflow before the administration. When the inhibition ratio≧90%, the results were represented by “+++.” When 90%>the inhibition ratio≧70%, the results were represented by “++.” When 70%>the inhibition ratio≧30%, the results were represented by “+.” The results shown in brackets are for 0.3 mg/kg administration, and the other results are for 0.1 mg/kg administration.

The target of experiment [2] is T1, PDE4B catalytic domain (PDE4Bcat) (Homo sapiens, UniProt Q07343).
T1 construct: The cDNA of PDE4B catalytic domain (hereinafter abbreviated as Cat) was isolated from human RNA by RT-PCR; made in house; host or cells: Sf9 insect cells (baculovirus, Gateway / Bac-to-Bac)
As to the kind of experiment: Phosphodiesterase inhibitory activity ([3H]cAMP breakdown, recombinant PDE4Bcat). It counts as biochemical. To be noted: 30° C. 20 minutes, read-out: IC50(μmol/L) PDE4. An excerpt:
The cDNA of PDE4B catalytic domain (hereinafter abbreviated as Cat) was isolated from human RNA by RT-PCR. The isolated cDNA fragments were inserted into Sf9 insect cells using Gateway system (product of Invitrogen Corporation) and Bac-to-Bac (registered trademark) Baculovirus Expression system (product of Invitrogen Corporation) to express a target PDE protein. The recombinant PDE4Bcat was purified from the culture supernatants or cell extracts of Sf9 cells expressing high levels of the PDE protein by ion exchange chromatography and was used for the following experiments.
A 4 mmol/L solution of each test compound was serially diluted four-fold with a 15% DMSO solution to prepare solutions with concentrations of 15 nmol/L to 4 mmol/L (the final concentrations used in the experiments were 1.5 nmol/L to 400 μmol/L). 10 μL of the prepared test compound solutions, [3H] cAMP diluted with a buffer solution (40 mmol/L Tris-HCl (pH: 7.4), 10 mmol/L MgCl2), and 40 μL of the recombinant human PDE protein (2×10^−6 units, 1 unit is defined as the amount of PDE that breaks down 1 μmol/L of cAMP in one minute under the conditions of a pH of 7.5 and 30° C.) were added to a 96-well plate. The mixtures were reacted at 30° C. for 20 minutes. Then, the resultant mixtures were reacted at 65° C. for 2 minutes. Subsequently, 25 μL of 1 mg/mL5′-nucleotidase (Crotalus atrox venom, product of Sigma) was added to the mixtures, and the mixtures were reacted at 30° C. for 10 minutes. After completion of the reaction, 200 μL of a solution of Dowex (300 mg/mL Dowex 1×8-400 (product of Sigma Aldrich), 33% ethanol) was added to the mixtures, and the mixtures were shaken at 4° C. for 20 minutes. Subsequently, 200 μL of MicroScint 20 (product of Packard) was added to the mixtures, and measurement was performed using a scintillation counter (Topcount, product of Packard). IC50 values were calculated using Graph Pad Prism v3.03 (product of GraphPad Software). When […], the results were represented by “+.” When 0.1 μmol/L>the IC50 value, the results were represented by “++.”

The structures appear in SMILES notation.

T1 sequence (Q07343 330-659 limits assumed): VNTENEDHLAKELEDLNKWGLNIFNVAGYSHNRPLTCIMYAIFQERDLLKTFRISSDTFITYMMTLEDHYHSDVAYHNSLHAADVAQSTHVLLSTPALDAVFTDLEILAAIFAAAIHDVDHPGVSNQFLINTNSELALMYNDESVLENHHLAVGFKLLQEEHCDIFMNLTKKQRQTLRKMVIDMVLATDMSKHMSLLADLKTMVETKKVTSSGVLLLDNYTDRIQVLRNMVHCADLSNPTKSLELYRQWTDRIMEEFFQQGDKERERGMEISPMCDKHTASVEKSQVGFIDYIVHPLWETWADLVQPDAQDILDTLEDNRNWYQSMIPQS

Turning to `CCc1cc2c(C(=O)Nc3c(Cl)c[n+]([O-])cc3Cl)ccc(OC)n2n1` [Example 11, 2-Ethyl-7-methoxypyrazolo[1,5-a]pyridine-4-carboxylic acid (3,5-dichloto-1-oxypyridin-4-yl)amide], the inhibition in vivo at 0.3 mg/kg in experiment [1] lay in the range of 70 to 90%. For the same compound, the IC50 in experiment [2] was < 0.1 µmol/L. Turning to `COc1ccc(C(=O)Nc2c(Cl)c[n+]([O-])cc2Cl)c2cc(C(F)(F)F)nn12` [Example 17, 7-Methoxy-2-trifluoromethylpyrazolo[1,5-a]pyridine-4-carboxylic acid (3,5-dichloro-1-oxypyridin-4-yl)amide], the inhibition in vivo at 0.1 mg/kg in experiment [1] lay in the range of 30 to 70%. For the same compound, the IC50 in experiment [2] was < 0.1 µmol/L.

In the case of `COc1ccc(C(=O)Nc2c(Cl)cc(Cl)cc2Cl)c2cc(C(F)(F)F)nn12` [Example 18, 7-Methoxy-2-trifluoromethylpyrazolo[1,5-a]pyridine-4-carboxylic acid (2,4,6-trichlorophenyl)amide], in experiment [2], the IC50 fell in the range of 0.1 to 10 µmol/L.

As to `COc1ccc(C(=O)Nc2c(Cl)cncc2Cl)c2cc(C3CC3)nn12` [Example 24, 2-Cyclopropyl-7-methoxypyrazolo[1,5-a]pyridine-4-carboxylic acid (3,5-dichloropyridin-4-yl)amide], the inhibition in vivo at 0.1 mg/kg in experiment [1] is ≥ 90%. Moreover, in experiment [2], the IC50 is < 0.1 µmol/L. For the compound `COc1ccc(C(=O)Nc2c(Cl)c[n+](O)cc2Cl)c2cc(C3CC3)nn12` [Example 25, 2-Cyclopropyl-7-methoxypyrazolo[1,5-a]pyridine-4-carboxylic acid (3,5-dichloro-1-oxypyridin-4-yl)amide], the inhibition in vivo at 0.3 mg/kg in experiment [1] is ≥ 90%. Besides, the IC50 in experiment [2] was < 0.1 µmol/L. As for `COc1ccc(C(=O)Nc2c(Cl)cncc2Cl)c2cc(C(C)C)nn12` [Example 32, 2-Isopropyl-7-methoxypyrazolo[1,5-a]pyridine-4-carboxylic acid (3,5-dichloropyridin-4-yl)amide], the inhibition in vivo at 0.1 mg/kg in experiment [1] was in the range of 70 to 90%. The IC50 in experiment [2] lay in the range of 0.1 to 10 µmol/L.

For `COc1ccc(C(=O)Nc2c(Cl)c[n+](O)cc2Cl)c2cc(C(C)C)nn12` [Example 33, 2-Isopropyl-7-methoxypyrazolo[1,5-a]pyridine-4-carboxylic acid (3,5-dichloro-1-oxypyridin-4-yl)amide], in experiment [1], the inhibition in vivo at 0.1 mg/kg is ≥ 90%. Besides, the IC50 in experiment [2] is < 0.1 µmol/L.

`COc1ccc(C(=O)Nc2c(Cl)cncc2Cl)c2ccnn12` [Example 40, 7-Methoxypyrazolo[1,5-a]pyridine-4-carboxylic acid (3,5-dichloropyridin-4-yl)amide]: the inhibition in vivo at 0.3 mg/kg in experiment [1] lay in the range of 70 to 90%. The IC50 in experiment [2] is < 0.1 µmol/L. In the same order, the values of `COc1ccc(C(=O)Nc2c(Cl)c[n+]([O-])cc2Cl)c2ccnn12` [Example 41, 7-Methoxypyrazolo[1,5-a]pyridine-4-carboxylic acid (3,5-dichloro-1-oxypyridin-4-yl)amide] are 30 to 70% and < 0.1 µmol/L. With `CCc1cc2c(C(=O)Nc3c(Cl)cncc3Cl)cccn2n1` [Example 48, 2-Ethylpyrazolo[1,5-a]pyridine-4-carboxylic acid (3,5-dichloropyridin-4-yl)amide], the IC50 in experiment [2] was in the range of 0.1 to 10 µmol/L. In the case of `COc1ccc(C(=O)Nc2c(Cl)cncc2Cl)c2cc(C(F)F)nn12` [Example 58, 2-Difluoromethyl-7-methoxy-pyrazolo[1,5-a]pyridine-4-carboxylic acid (3,5-dichloropyridin-4-yl)amide], the inhibition in vivo at 0.1 mg/kg in experiment [1] was ≥ 90%. In addition, in experiment [2], the IC50 is < 0.1 µmol/L. With `CCOc1ccc(C(=O)Nc2c(Cl)cncc2Cl)c2cc(C(F)F)nn12` [Example 59, 2-Difluoromethyl-7-ethoxypyrazolo[1,5-a]pyridine-4-carboxylic acid (3,5-dichloropyridin-4-yl)amide], the IC50 in experiment [2] was < 0.1 µmol/L. On the same count and under the same terms, in the case of `COc1ccc(C(=O)Nc2c(Cl)c[n+](O)cc2Cl)c2cc(C#N)nn12` [Example 71, 2-Cyano-7-methoxypyrazolo[1,5-a]pyridine-4-carboxylic acid (3,5-dichloro-1-oxypyridin-4-yl)amide] it was < 0.1 µmol/L. Take `COCc1cc2c(C(=O)Nc3c(Cl)cncc3Cl)ccc(OC)n2n1` [Example 76, 7-Methoxy-2-methoxymethylpyrazolo[1,5-a]pyridine-4-carboxylic acid (3,5-dichloropyridin-4-yl)amide]: in experiment [1], the inhibition in vivo at 0.1 mg/kg is 70 to 90%. In addition, the IC50 in experiment [2] is < 0.1 µmol/L.

Take `COCc1cc2c(C(=O)Nc3c(Cl)c[n+](O)cc3Cl)ccc(OC)n2n1` [Example 77, 7-Methoxy-2-methoxymethylpyrazolo[1,5-a]pyridine-4-carboxylic acid (3,5-dichloro-1-oxypyridin-4-yl)amide]: in experiment [1], the inhibition in vivo at 0.3 mg/kg lay within 30 to 70%. For the same compound, in experiment [2], the IC50 is < 0.1 µmol/L. In the same order, the values of `COc1ccc(C(=O)Nc2c(Cl)cncc2Cl)c2cc(C=O)nn12` [Example 78, 2-Formyl-7-methoxypyrazolo[1,5-a]pyridine-4-carboxylic acid (3,5-dichloropyridin-4-yl)amide] are 70 to 90% and < 0.1 µmol/L. Consider `COc1ccc(C(=O)Nc2c(Cl)cncc2Cl)c2cc(C(C)O)nn12` (centres unmarked) [Example 79, 2-(1-Hydroxyethyl)-7-methoxypyrazolo[1,5-a]pyridine-4-carboxyl ic acid (3,5-dichloropyridin-4-yl)amide], for which, in experiment [1], the inhibition in vivo at 0.1 mg/kg is 30 to 70%. The IC50 in experiment [2] was < 0.1 µmol/L. Consider `COc1ccc(C(=O)Nc2c(Cl)cncc2Cl)c2cc(C(C)=O)nn12` [Example 80, 2-Acetyl-7-methoxypyrazolo[1,5-a]pyridine-4-carboxylic acid (3,5-dichloropyridin-4-yl)amide], for which, in experiment [1], the inhibition in vivo at 0.1 mg/kg was 30 to 70%. Moreover, the IC50 in experiment [2] is < 0.1 µmol/L. For `COc1ccc(C(=O)Nc2c(Cl)cncc2Cl)c2cc(C(=O)O)nn12` [Example 81, 4-(3,5-Dichloropyridin-4-ylcarbamoyl)-7-methoxypyrazolo[1,5-a]pyridine-2-carboxylic acid], the IC50 in experiment [2] is 0.1 to 10 µmol/L.

With `CNc1ccc(C(=O)Nc2c(Cl)cncc2Cl)c2cc(C(F)(F)F)nn12` [Example 97, 7-Methylamino-2-trifluoromethylpyrazolo[1,5-a]pyridine-4-carboxylic acid (3,5-dichloropyridin-4-yl)amide], the IC50 in experiment [2] was < 0.1 µmol/L. The same measure, in the same setting: in the case of `CC(=O)c1ccc(C(=O)Nc2c(Cl)cncc2Cl)c2cc(C(F)(F)F)nn12` [Example 108, 7-Acetyl-2-trifluoromethylpyrazolo[1,5-a]pyridine-4-carboxylic acid (3,5-dichloropyridin-4-yl)amide] it was < 0.1 µmol/L; in that of `COCc1ccc(C(=O)Nc2c(Cl)cncc2Cl)c2cc(C(F)(F)F)nn12` [Example 115, 7-Methoxymethyl-2-trifluoromethylpyrazolo[1,5-a]pyridine-4-carboxylic acid (3,5-dichloropyridin-4-yl)amide], < 0.1 µmol/L. Still for that read-out and setting: in the case of `COc1ccc(C(=O)Nc2c(Cl)cncc2Cl)c2c(Cl)c(C(F)(F)F)nn12` [Example 118, 3-Chloro-7-methoxy-2-trifluoromethylpyrazolo[1,5-a]pyridine-4-carboxylic acid (3,5-dichloropyridin-4-yl)amide] it was < 0.1 µmol/L; in that of `COc1ccc(C(=O)Nc2c(Cl)cncc2Cl)c2c(O)c(C(F)(F)F)nn12` [Example 119, 3-Hydroxy-7-methoxy-2-trifluoromethylpyrazolo[1,5-a]pyridine-4-carboxylic acid (3,5-dichloropyridin-4-yl)amide], 0.1 to 10 µmol/L.
